How the values were obtained:
[1] = target: Potassium voltage-gated channel subfamily A member 3 (Mus musculus, UniProt P16390); experiment: Inhibition of mouse Kv1.3 expressed in L929 cells at -80 mV holding potential by whole cell patch-clamp method; type: cell-based
[2] = Selectivity ratio of mouse Kv1.3 to ratio of KCa3.1 (unknown origin)
Rattus norvegicus = experiment: Antiinflammatory activity in po dosed rat assessed as inhibition of reverse passive arthus reaction; type: functional

Chain of Potassium voltage-gated channel subfamily A member 3 (P16390 whole entry): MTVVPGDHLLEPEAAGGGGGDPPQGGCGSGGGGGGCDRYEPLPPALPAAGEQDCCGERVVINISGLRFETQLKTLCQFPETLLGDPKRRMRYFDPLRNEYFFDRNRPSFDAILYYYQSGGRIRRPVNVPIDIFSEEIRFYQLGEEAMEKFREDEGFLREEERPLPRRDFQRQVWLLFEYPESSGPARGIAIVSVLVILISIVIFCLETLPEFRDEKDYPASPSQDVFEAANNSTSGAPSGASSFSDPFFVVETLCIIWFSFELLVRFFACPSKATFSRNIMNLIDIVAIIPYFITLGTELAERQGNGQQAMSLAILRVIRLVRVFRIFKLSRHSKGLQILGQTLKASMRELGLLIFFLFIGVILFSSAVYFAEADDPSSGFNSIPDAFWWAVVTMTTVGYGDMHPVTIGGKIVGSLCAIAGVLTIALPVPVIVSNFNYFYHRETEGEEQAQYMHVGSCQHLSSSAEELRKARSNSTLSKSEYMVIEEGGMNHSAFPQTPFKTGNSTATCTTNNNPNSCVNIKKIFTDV

Structure (SMILES) | EC50 [1] [nM] | Selectivity ratio [2] | ED50 (Rattus norvegicus) [mg/kg]
COc1c(C(C)=O)c(O)c(OCCCc2ccccc2)c2occc12 | 1000 | 10 | 
Cc1cc(=O)c2c(O)cc(O)c([C@H]3CCN(C)C[C@H]3O)c2o1 [ROHITUKINE] |  |  | 2.5

Source: ChEMBL document CHEMBL3813619, “Feeling Nature's PAINS: Natural Products, Natural Product Drugs, and Pan Assay Interference Compounds (PAINS)” (J Nat Prod, 2016)
